The target in one assay is T1, human DHODH (Homo sapiens, UniProt Q02127).
T1 construct: purchased Proteros PR-0044
The assay can be described thus: DHODH enzymatic assay (DCIP absorbance, end-point). Conditions: purified human DHODH, DCIP as final electron acceptor, end-point mode; read-out: hDHODH IC50. The format is biochemical. Here is the method: In vitro Assay: DHODH enzymatic assay
To detect DHODH enzyme activities, dichloroindophenol (DCIP) is added as the final electron acceptor in the assay. DCIP can accept electrons from the reduced coenzyme Q generated in the assay, or from dihydroorotate (DHO) via FMN by binding presumably to the ubiquinone pocket. […] The assay buffer contained […], pH 7.5, 150 mM NaCl, 0.5 mM EDTA, and 0.1% Triton X-100 in MilliQ water. Substrate consisting of 20 mM DHO, 5 mM CoQ6, and 1 mM DCIP in assay buffer, initiates the reaction. […] Absorbance measurements were obtained using the BMG Phera Star plate-reading spectrophotometer. Purified human DHODH was purchased from Proteros (cat. No. PR-0044). Chemicals were purchased from Sigma-Aldrich, Teknova, and Avanti Polar Lipids. Liquid handling was performed using Labcyte Echo and Formulatrix Tempest.

In the next assay the test system is MOLM-13 cells. The assay is described as follows: MOLM-13 cellular assay (CellTiter-Glo cell viability). The format is cell-based. Conditions: 72 hours exposure, cell viability by CellTiter-Glo. Here is the method:
In Vitro Assay: MOLM-13 Cellular Assay
MOLM-13 cells were obtained from DSMZ and were maintained in RPMI 1640+Glutamax+25 mM HEPES (Invitrogen, catalog number 72400) supplemented with 10% heat inactivated fetal bovine serum (FBS; Invitrogen, catalog number 16140). The day prior to assay set-up, cells were pelleted, resuspended in fresh media, counted, and cells were plated at 0.4×10^6 cell/mL in a T150 flask. On the day of the assay, cells were pelleted, resuspend in fresh media, counted and seeded at 5,000 cells/well in white opaque 96-well tissue culture treated microplates (Perkin Elmer, catalog number 6005680). Cells were exposed to different concentrations of test compounds at 37° C., 5% CO2 for 72 hours immediately after seeding. Cell viability was acquired on a Perkin Elmer Envision 2104 multilabel reader using the CellTiter-Glo assay (Promega) according to the manufacturer's instructions.

Where only a bound is given, the exact number is not on record here.

T1 sequence (Q02127 whole entry): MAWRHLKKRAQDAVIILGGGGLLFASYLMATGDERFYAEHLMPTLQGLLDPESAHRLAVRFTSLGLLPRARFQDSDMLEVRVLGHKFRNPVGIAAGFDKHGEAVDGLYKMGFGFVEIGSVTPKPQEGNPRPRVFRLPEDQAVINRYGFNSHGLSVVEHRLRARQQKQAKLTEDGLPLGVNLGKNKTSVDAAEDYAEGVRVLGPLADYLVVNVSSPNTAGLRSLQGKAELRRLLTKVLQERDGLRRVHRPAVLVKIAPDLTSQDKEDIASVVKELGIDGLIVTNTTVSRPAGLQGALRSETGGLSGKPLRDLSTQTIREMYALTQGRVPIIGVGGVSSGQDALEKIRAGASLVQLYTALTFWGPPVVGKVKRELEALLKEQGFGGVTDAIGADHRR

Usually IC50 stands for the concentration that inhibits the measured activity by half. With `C=C(C)[C@@H]1CN(c2c(C)cc(C)nc2Cl)C(=O)c2cc(F)c(-n3nc(CO)n(CC)c3=O)cc21` (single isomer, unassigned; atropisomer 1) [Example 58, Atropisomer 1, (S*)-2-(2-Chloro-4,6-dimethylpyridin-3-yl)-6-(4-ethyl-3-(hydroxymethyl)-5-oxo-4,5-dihydro-1H-1,2,4-triazol-1-yl)-7-fluoro-4-(prop-1-en-2-yl)-3,4-dihydroisoquinolin-1(2H)-one], the IC50 on human DHODH was 4 nM; in the assay on MOLM-13 cells it was 2.93 nM.

Take `C=C(C)[C@H]1CN(c2c(C)cc(C)nc2Cl)C(=O)c2cc(F)c(-n3nc(CO)n(CC)c3=O)cc21` (single isomer, unassigned; atropisomer 1) [Example 59, Atropisomer 1, (R *)-2-(2-Chloro-4,6-dimethylpyridin-3-yl)-6-(4-ethyl-3-(hydroxymethyl)-5-oxo-4,5-dihydro-1H-1,2,4-triazol-1-yl)-7-fluoro-4-(prop-1-en-2-yl)-3,4-dihydroisoquinolin-1(2H)-one]: the IC50 was above 100 nM at human DHODH and 1860 nM in the assay on MOLM-13 cells.

With `C=C(C)[C@@H]1CN(c2c(C)cc(C)nc2Cl)C(=O)c2cc(F)c(-n3nc(CO)n(CC)c3=O)cc21` (single isomer, unassigned; atropisomer 1) [Example 60, Atropisomer 1, (S*)-2-(2-Chloro-4,6-dimethylpyridin-3-yl)-6-(4-ethyl-3-(hydroxymethyl)-5-oxo-4,5-dihydro-1H-1,2,4-triazol-1-yl)-7-fluoro-4-(prop-1-en-2-yl)-3,4-dihydroisoquinolin-1(2H)-one], the IC50 on human DHODH is above 100 nM; in the assay with MOLM-13 cells it was 26.8 nM.

Turning to `C=C(C)[C@@H]1CN(c2c(C)cnc(OC)c2Cl)C(=O)c2cc(F)c(-n3nc(CO)n(CC)c3=O)cc21` (single isomer, unassigned; atropisomer 1) [Example 62, Atropisomer 1, (S*)-2-(3-Chloro-2-methoxy-5-methylpyridin-4-yl)-6-(4-ethyl-3-(hydroxymethyl)-5-oxo-4,5-dihydro-1H-1,2,4-triazol-1-yl)-7-fluoro-4-(prop-1-en-2-yl)-3,4-dihydroisoquinolin-1(2H)-one], the IC50 at human DHODH turned out to be 2 nM; in the assay with MOLM-13 cells, 0.793 nM.

`C=C(C)[C@H]1CN(c2c(C)cnc(OC)c2Cl)C(=O)c2cc(F)c(-n3nc(CO)n(CC)c3=O)cc21` (single isomer, unassigned; atropisomer 1) [Example 63, Atropisomer 1, (R *)-2-(3-Chloro-2-methoxy-5-methylpyridin-4-yl)-6-(4-ethyl-3-(hydroxymethyl)-5-oxo-4,5-dihydro-1H-1,2,4-triazol-1-yl)-7-fluoro-4-(prop-1-en-2-yl)-3,4-dihydroisoquinolin-1(2H)-one]: the IC50 is above 100 nM at human DHODH and 359 nM in the assay with MOLM-13 cells.

On to `C=C(C)[C@@H]1CN(c2c(C)cnc(OC)c2C)C(=O)c2cc(F)c(-n3nc(CO)n(CC)c3=O)cc21` (single isomer, unassigned; atropisomer 2) [Example 56, Atropisomer 2, (S*)-6-(4-Ethyl-3-(hydroxymethyl)-5-oxo-4,5-dihydro-1H-1,2,4-triazol-1-yl)-7-fluoro-2-(2-methoxy-3,5-dimethylpyridin-4-yl)-4-(prop-1-en-2-yl)-3,4-dihydroisoquinolin-1(2H)-one], for which the values for the half-maximal inhibitory concentration (IC50) on human DHODH and in the assay on MOLM-13 cells were above 100 nM and 101 nM, respectively.

`C=C(C)[C@H]1CN(c2c(C)cnc(OC)c2C)C(=O)c2cc(F)c(-n3nc(CO)n(CC)c3=O)cc21` (single isomer, unassigned; atropisomer 2) [Example 57, Atropisomer 2, (R*)-6-(4-Ethyl-3-(hydroxymethyl)-5-oxo-4,5-dihydro-1H-1,2,4-triazol-1-yl)-7-fluoro-2-(2-methoxy-3,5-dimethylpyridin-4-yl)-4-(prop-1-en-2-yl)-3,4-dihydroisoquinolin-1(2H)-one]: the IC50 on human DHODH was above 100 nM; in the assay on MOLM-13 cells it was 29.7 nM.

Take `C=C(C)[C@H]1CN(c2c(C)cc(C)nc2Cl)C(=O)c2cc(F)c(-n3nc(CO)n(CC)c3=O)cc21` (single isomer, unassigned; atropisomer 2) [Example 61, Atropisomer 2, (R*)-2-(2-Chloro-4,6-dimethylpyridin-3-yl)-6-(4-ethyl-3-(hydroxymethyl)-5-oxo-4,5-dihydro-1H-1,2,4-triazol-1-yl)-7-fluoro-4-(prop-1-en-2-yl)-3,4-dihydroisoquinolin-1(2H)-one]: the IC50 came out at 90 nM on human DHODH and 114 nM in the assay on MOLM-13 cells.

Regarding `C=C(C)[C@@H]1CN(c2c(C)cnc(OC)c2Cl)C(=O)c2cc(F)c(-n3nc(CO)n(CC)c3=O)cc21` (single isomer, unassigned; atropisomer 2) [Example 64, Atropisomer 2, (S*)-2-(3-Chloro-2-methoxy-5-methylpyridin-4-yl)-6-(4-ethyl-3-(hydroxymethyl)-5-oxo-4,5-dihydro-1H-1,2,4-triazol-1-yl)-7-fluoro-4-(prop-1-en-2-yl)-3,4-dihydroisoquinolin-1(2H)-one], the IC50 at human DHODH came out at 60 nM; in the assay on MOLM-13 cells, 15.3 nM.

On to `C=C(C)[C@@H]1CN(c2ccccc2Cl)C(=O)c2cc(F)c(-n3nc(CO)n(CC)c3=O)cc21` (stereo in doubt) [Example 34], for which the IC50 at human DHODH came out at 0.9 nM; in the assay on MOLM-13 cells (Homo sapiens, MOLM-13, 72 h), 1.06 nM.

In the case of `CCn1c(CO)nn(-c2cc3c(cc2F)C(=O)N(c2c(F)cccc2Cl)C(C)N3C(C)C)c1=O` (stereo not drawn) [Example 2, 3-(2-Chloro-6-fluorophenyl)-7-(4-ethyl-3-(hydroxymethyl)-5-oxo-4,5-dihydro-1H-1,2,4-triazol-1-yl)-6-fluoro-1-isopropyl-2-methyl-2,3-dihydroquinazolin-4(1H)-one], the IC50 on human DHODH was determined as 35 nM; in the assay with MOLM-13 cells (Homo sapiens, MOLM-13, 72 h), 8.4 nM.

In the case of `CCn1c(CO)nn(-c2cc3c(cc2F)C(=O)N(c2c(F)cccc2Cl)C(C)(C)N3C(C)C)c1=O` [Example 3, 3-(2-Chloro-6-fluorophenyl)-7-(4-ethyl-3-(hydroxymethyl)-5-oxo-4,5-dihydro-1H-1,2,4-triazol-1-yl)-6-fluoro-1-isopropyl-2,2-dimethyl-2,3-dihydroquinazolin-4 (1H)-one], the IC50 turned out to be 1040 nM at human DHODH and 440 nM with MOLM-13 cells (Homo sapiens, MOLM-13, 72 h).

On to `CCn1c(CO)nn(-c2cc3c(cc2F)c(=O)n(-c2c(F)cccc2Cl)c(=O)n3C(C)C)c1=O` [Example 4, 3-(2-Chloro-6-fluorophenyl)-7-(4-ethyl-3-(hydroxymethyl)-5-oxo-4,5-dihydro-1H-1,2,4-triazol-1-yl)-6-fluoro-1-isopropylquinazoline-2,4(1H,3H)-dione], for which the IC50 on human DHODH came to 110 nM; in the assay on MOLM-13 cells (Homo sapiens, MOLM-13, 72 h), 4.4 nM.

Turning to `CCn1c(CO)nn(-c2nc3c(cc2F)C(=O)N(c2c(F)cccc2Cl)CN3C(C)C)c1=O` [Example 5, 3-(2-Chloro-6-fluorophenyl)-7-(4-ethyl-3-(hydroxymethyl)-5-oxo-4,5-dihydro-1H-1,2,4-triazol-1-yl)-6-fluoro-1-isopropyl-2,3-dihydropyrido[2,3-d]pyrimidin-4(1H)-one], the IC50 on human DHODH amounted to 1.4 nM; in the assay on MOLM-13 cells (Homo sapiens, MOLM-13, 72 h), 1.2 nM.

`CCn1c(CO)nn(-c2nc3c(cc2F)C(=O)N(c2c(F)cccc2Cl)CN3C2CCOCC2)c1=O` [Example 6, 3-(2-Chloro-6-fluorophenyl)-7-(4-ethyl-3-(hydroxymethyl)-5-oxo-4,5-dihydro-1H-1,2,4-triazol-1-yl)-6-fluoro-1-(tetrahydro-2H-pyran-4-yl)-2,3-dihydropyrido[2,3-d]pyrimidin-4(1H)-one]: the IC50 came to 57 nM on human DHODH and 50 nM with MOLM-13 cells (Homo sapiens, MOLM-13, 72 h).

As to `CCn1c(CO)nn(-c2nc3c(cc2F)C(=O)N(c2c(F)cccc2Cl)CN3C2CCC2)c1=O` [Example 7, 3-(2-chloro-6-fluorophenyl)-1-cyclobutyl-7-(4-ethyl-3-(hydroxymethyl)-5-oxo-4,5-dihydro-1H-1,2,4-triazol-1-yl)-6-fluoro-2,3-dihydropyrido[2,3-d]pyrimidin-4(1H)-one], the IC50 on human DHODH worked out at 2.6 nM; with MOLM-13 cells (Homo sapiens, MOLM-13, 72 h), 1.7 nM.

Regarding `CCn1c(CO)nn(-c2nc3c(cc2F)C(=O)N(c2c(F)cccc2Cl)CN3[C@@H](C)C(F)(F)F)c1=O` [Example 8, (S)-3-(2-Chloro-6-fluorophenyl)-7-(4-ethyl-3-(hydroxymethyl)-5-oxo-4,5-dihydro-1H-1,2,4-triazol-1-yl)-6-fluoro-1-(1,1,1-trifluoropropan-2-yl)-2,3-dihydropyrido[2,3-d]pyrimidin-4(1H)-one], the 50% inhibitory concentration (IC50) on human DHODH is below 0.5 nM; with MOLM-13 cells (Homo sapiens, MOLM-13, 72 h) it was 1.7 nM.

On to `CCn1c(CO)nn(-c2nc3c(cc2F)C(=O)N(c2c(F)cccc2Cl)CN3C2CC2)c1=O` [Example 9, 3-(2-Chloro-6-fluorophenyl)-1-cyclopropyl-7-(4-ethyl-3-(hydroxymethyl)-5-oxo-4,5-dihydro-1H-1,2,4-triazol-1-yl)-6-fluoro-2,3-dihydropyrido[2,3-d]pyrimidin-4(1H)-one], for which the IC50 on human DHODH worked out at 11 nM; in the assay with MOLM-13 cells (Homo sapiens, MOLM-13, 72 h) it was 1.7 nM.

Values taken from patent US20220081422A1 (Janssen Biotech, Inc., priority 2019, published 2022).
